Results taken from US20070049564A1 (Wyeth, priority 2005, published 2007).
In brackets after ≈: the same amount, converted by molar mass. Read-outs that look alike come from different tables or passages of the source.

Key:
Test in all cases: MIC, broth microdilution
E. coli GC 2233 = settings: Escherichia coli
E. coli GC 2270 = settings: Escherichia coli
E. coli GC 2271 = settings: Escherichia coli
E. coli GC 2272 = settings: Escherichia coli
E. coli GC 4560 = settings: Escherichia coli
E. coli GC 6465 = settings: Escherichia coli
E. coli GC 3226 = settings: Escherichia coli
E. coli GC 2203 = settings: Escherichia coli
E. coli GC 1073 = settings: Escherichia coli
P. aeruginosa GC 2214 = settings: Pseudomonas aeruginosa
S. aureus GC 1131 = settings: Staphylococcus aureus
S. aureus GC 6467 = settings: Staphylococcus aureus
S. aureus GC 1079 = settings: Staphylococcus aureus
S. aureus GC 6335 = settings: Staphylococcus aureus
S. aureus GC 6469 = settings: Staphylococcus aureus
S. epidermidis GC 4935 = settings: Staphylococcus epidermidis
E. faecalis GC 2265 = settings: Enterococcus faecalis
E. faecalis GC 2267 = settings: Enterococcus faecalis
E. faecium GC 2243 = settings: Enterococcus faecium
c. albicans GC 3066 = tested on: c. albicans GC 3066

MIC (E. coli GC 2233; GC2233, read-out: MINIMAL INHIBITORY CONCENTRATION MIC, Human Serum): 8 µg/mL (≈ 10.4 µM) | MIC (E. coli GC 2233; GC2233, read-out: MINIMAL INHIBITORY CONCENTRATION MIC, Mouse Serum): 1 µg/mL (≈ 1.3 µM) | MIC (E. coli GC 2233; GC2233, read-out: MINIMAL INHIBITORY CONCENTRATION MIC, Water): 32 µg/mL (≈ 41.6 µM) | MIC (E. coli GC 2270; GC2270, read-out: MINIMAL INHIBITORY CONCENTRATION MIC, Human Serum): 8 µg/mL (≈ 10.4 µM) | MIC (E. coli GC 2270; GC2270, read-out: MINIMAL INHIBITORY CONCENTRATION MIC, Mouse Serum): 1 µg/mL (≈ 1.3 µM) | MIC (E. coli GC 2270; GC2270, read-out: MINIMAL INHIBITORY CONCENTRATION MIC, Water): 32 µg/mL (≈ 41.6 µM) | MIC (E. coli GC 2271; GC2271, read-out: MINIMAL INHIBITORY CONCENTRATION MIC, Human Serum): 4 µg/mL (≈ 5.2 µM) | MIC (E. coli GC 2271; GC2271, read-out: MINIMAL INHIBITORY CONCENTRATION MIC, Mouse Serum): 1 µg/mL (≈ 1.3 µM) | MIC (E. coli GC 2271; GC2271, read-out: MINIMAL INHIBITORY CONCENTRATION MIC, Water): 32 µg/mL (≈ 41.6 µM) | MIC (E. coli GC 2272; GC2272, read-out: MINIMAL INHIBITORY CONCENTRATION MIC, Human Serum): 4 µg/mL (≈ 5.2 µM) | MIC (E. coli GC 2272; GC2272, read-out: MINIMAL INHIBITORY CONCENTRATION MIC, Mouse Serum): 1 µg/mL (≈ 1.3 µM) | MIC (E. coli GC 2272; GC2272, read-out: MINIMAL INHIBITORY CONCENTRATION MIC, Water): 32 µg/mL (≈ 41.6 µM) | MIC (E. coli GC 4560; GC4560, read-out: MINIMAL INHIBITORY CONCENTRATION MIC, Human Serum): 2 µg/mL (≈ 2.6 µM) | MIC (E. coli GC 4560; GC4560, read-out: MINIMAL INHIBITORY CONCENTRATION MIC, Mouse Serum): 0.5 µg/mL (≈ 0.649 µM) | MIC (E. coli GC 4560; GC4560, read-out: MINIMAL INHIBITORY CONCENTRATION MIC, Water): 4 µg/mL (≈ 5.2 µM) | MIC (E. coli GC 6465; GC6465, read-out: MINIMAL INHIBITORY CONCENTRATION MIC, Human Serum): 16 µg/mL (≈ 20.8 µM) | MIC (E. coli GC 6465; GC6465, read-out: MINIMAL INHIBITORY CONCENTRATION MIC, Mouse Serum): 2 µg/mL (≈ 2.6 µM) | MIC (E. coli GC 6465; GC6465, read-out: MINIMAL INHIBITORY CONCENTRATION MIC, Water): > 64 µg/mL | MIC (E. coli GC 3226; GC3226, read-out: MINIMAL INHIBITORY CONCENTRATION MIC, Human Serum): 8 µg/mL (≈ 10.4 µM) | MIC (E. coli GC 3226; GC3226, read-out: MINIMAL INHIBITORY CONCENTRATION MIC, Mouse Serum): 1 µg/mL (≈ 1.3 µM) | MIC (E. coli GC 3226; GC3226, read-out: MINIMAL INHIBITORY CONCENTRATION MIC, Water): 32 µg/mL (≈ 41.6 µM) | MIC (E. coli GC 2203; GC2203, read-out: MINIMAL INHIBITORY CONCENTRATION MIC, Human Serum): 8 µg/mL (≈ 10.4 µM) | MIC (E. coli GC 2203; GC2203, read-out: MINIMAL INHIBITORY CONCENTRATION MIC, Mouse Serum): 1 µg/mL (≈ 1.3 µM) | MIC (E. coli GC 2203; GC2203, read-out: MINIMAL INHIBITORY CONCENTRATION MIC, Water): 32 µg/mL (≈ 41.6 µM) | MIC (E. coli GC 1073; GC1073, read-out: MINIMAL INHIBITORY CONCENTRATION MIC, Human Serum): 8 µg/mL (≈ 10.4 µM) | MIC (E. coli GC 1073; GC1073, read-out: MINIMAL INHIBITORY CONCENTRATION MIC, Mouse Serum): 2 µg/mL (≈ 2.6 µM) | MIC (E. coli GC 1073; GC1073, read-out: MINIMAL INHIBITORY CONCENTRATION MIC, Water): 32 µg/mL (≈ 41.6 µM) | MIC (P. aeruginosa GC 2214; GC2214, read-out: MINIMAL INHIBITORY CONCENTRATION MIC, Human Serum): > 64 µg/mL | MIC (P. aeruginosa GC 2214; GC2214, read-out: MINIMAL INHIBITORY CONCENTRATION MIC, Mouse Serum): 32 µg/mL (≈ 41.6 µM) | MIC (P. aeruginosa GC 2214; GC2214, read-out: MINIMAL INHIBITORY CONCENTRATION MIC, Water): > 64 µg/mL | MIC (S. aureus GC 1131; GC1131, read-out: MINIMAL INHIBITORY CONCENTRATION MIC, Human Serum): 0.5 µg/mL (≈ 0.649 µM) | MIC (S. aureus GC 1131; GC1131, read-out: MINIMAL INHIBITORY CONCENTRATION MIC, Mouse Serum): 0.5 µg/mL (≈ 0.649 µM) | MIC (S. aureus GC 1131; GC1131, read-out: MINIMAL INHIBITORY CONCENTRATION MIC, Water): 1 µg/mL (≈ 1.3 µM) | MIC (S. aureus GC 6467; GC6467, read-out: MINIMAL INHIBITORY CONCENTRATION MIC, Human Serum): 0.25 µg/mL (≈ 0.325 µM) | MIC (S. aureus GC 6467; GC6467, read-out: MINIMAL INHIBITORY CONCENTRATION MIC, Mouse Serum): 0.25 µg/mL (≈ 0.325 µM) | MIC (S. aureus GC 6467; GC6467, read-out: MINIMAL INHIBITORY CONCENTRATION MIC, Water): 2 µg/mL (≈ 2.6 µM) | MIC (S. aureus GC 1079; GC1079, read-out: MINIMAL INHIBITORY CONCENTRATION MIC, Human Serum): 0.5 µg/mL (≈ 0.649 µM) | MIC (S. aureus GC 1079; GC1079, read-out: MINIMAL INHIBITORY CONCENTRATION MIC, Mouse Serum): 0.5 µg/mL (≈ 0.649 µM) | MIC (S. aureus GC 1079; GC1079, read-out: MINIMAL INHIBITORY CONCENTRATION MIC, Water): 2 µg/mL (≈ 2.6 µM) | MIC (S. aureus GC 6335; GC6335, read-out: MINIMAL INHIBITORY CONCENTRATION MIC, Human Serum): 1 µg/mL (≈ 1.3 µM) | MIC (S. aureus GC 6335; GC6335, read-out: MINIMAL INHIBITORY CONCENTRATION MIC, Mouse Serum): 1 µg/mL (≈ 1.3 µM) | MIC (S. aureus GC 6335; GC6335, read-out: MINIMAL INHIBITORY CONCENTRATION MIC, Water): 1 µg/mL (≈ 1.3 µM) | MIC (S. aureus GC 6469; GC6469, read-out: MINIMAL INHIBITORY CONCENTRATION MIC, Human Serum): 1 µg/mL (≈ 1.3 µM) | MIC (S. aureus GC 6469; GC6469, read-out: MINIMAL INHIBITORY CONCENTRATION MIC, Mouse Serum): 1 µg/mL (≈ 1.3 µM) | MIC (S. aureus GC 6469; GC6469, read-out: MINIMAL INHIBITORY CONCENTRATION MIC, Water): 2 µg/mL (≈ 2.6 µM) | MIC (S. epidermidis GC 4935; GC4935, read-out: MINIMAL INHIBITORY CONCENTRATION MIC, Human Serum): 2 µg/mL (≈ 2.6 µM) | MIC (S. epidermidis GC 4935; GC4935, read-out: MINIMAL INHIBITORY CONCENTRATION MIC, Mouse Serum): 2 µg/mL (≈ 2.6 µM) | MIC (S. epidermidis GC 4935; GC4935, read-out: MINIMAL INHIBITORY CONCENTRATION MIC, Water): 4 µg/mL (≈ 5.2 µM) | MIC (E. faecalis GC 2265; GC2265, read-out: MINIMAL INHIBITORY CONCENTRATION MIC, Human Serum): 2 µg/mL (≈ 2.6 µM) | MIC (E. faecalis GC 2265; GC2265, read-out: MINIMAL INHIBITORY CONCENTRATION MIC, Mouse Serum): 1 µg/mL (≈ 1.3 µM) | MIC (E. faecalis GC 2265; GC2265, read-out: MINIMAL INHIBITORY CONCENTRATION MIC, Water): 4 µg/mL (≈ 5.2 µM) | MIC (E. faecalis GC 2267; GC2267, read-out: MINIMAL INHIBITORY CONCENTRATION MIC, Human Serum): 2 µg/mL (≈ 2.6 µM) | MIC (E. faecalis GC 2267; GC2267, read-out: MINIMAL INHIBITORY CONCENTRATION MIC, Mouse Serum): 1 µg/mL (≈ 1.3 µM) | MIC (E. faecalis GC 2267; GC2267, read-out: MINIMAL INHIBITORY CONCENTRATION MIC, Water): 4 µg/mL (≈ 5.2 µM) | MIC (E. faecium GC 2243; GC2243, read-out: MINIMAL INHIBITORY CONCENTRATION MIC, Human Serum): 0.25 µg/mL (≈ 0.325 µM) | MIC (E. faecium GC 2243; GC2243, read-out: MINIMAL INHIBITORY CONCENTRATION MIC, Mouse Serum): 0.25 µg/mL (≈ 0.325 µM) | MIC (E. faecium GC 2243; GC2243, read-out: MINIMAL INHIBITORY CONCENTRATION MIC, Water): 0.5 µg/mL (≈ 0.649 µM) | MIC (c. albicans GC 3066; Candida albicans, GC3066, read-out: MINIMAL INHIBITORY CONCENTRATION MIC): > 64 µg/mL | MINIMAL INHIBITORY CONCENTRATION MIC (c. albicans GC 3066; Human Serum): >64 UG/ML | MINIMAL INHIBITORY CONCENTRATION MIC (c. albicans GC 3066; Mouse Serum): >64 UG/ML
SMILES: CN(C)c1cc(NC(=O)CN(C(=O)OCOC(=O)C2CCCCC2)C(C)(C)C)c(O)c2c1C[C@H]1C[C@H]3[C@H](N(C)C)C(O)=C(C(N)=O)C(=O)[C@@]3(O)C(O)=C1C2=O [Example 50, ({[(2-{[(5aR,6aS,7S,10aS)-9-(aminocarbonyl)-4,7-bis(dimethylamino)-1,8,10a,11-tetrahydroxy-10,12-dioxo-5,5a,6,6a,7,10,10a,12-octahydrotetracen-2-yl]amino}-2-oxoethyl)(tert-butyl)amino]carbonyl}oxy)methyl cyclohexanecarboxylate]
